Measurements: patent publication US9399637B2, “Substituted heteroaryl compounds and methods of use” (Calitor Sciences, LLC, priority 2014, dated 2016)

Tests used:
[1] = Pharmacokinetics after intravenous and oral administration in rats; format: in vivo; conditions: iv dosing, 1 mg/kg; for AUC(0-t) / half-life / Vd: rat, plasma; for Vd: read-out: Vss
Description: The LC/MS/MS system used in the analysis consists of an Agilent 1200 Series vacuum degasser, binary pump, well-plate autosampler, thermostatted column compartment, the Agilent G6430 Triple Quadrupole Mass Spectrometer with an electrosprayionization (ESI) source. Quantitative analysis was carried out using MRM mode. The parameters for MRM transitions are in the Table A.
An Agilent XDB-C18, 2.1×30 mm, 3.5 μM column was used for the analysis. 5 μL of the samples were injected. Analysis condition: The mobile phase was 0.1% formic acid in water (A) and 0.1% formic acid in methanol (B). The flow rate was 0.4 mL/min. And the gradient of Mobile phase was in the Table B.
Alternatively, an Agilent 6330 series LC/MS/MS spectrometer equipped with G1312A binary pumps, a G1367A autosampler and a G1314C UV detector were used in the analysis. An ESI source was used on the LC/MS/MS spectrometer. The analysis was done in positive ion mode as appropriate and the MRM transition for each analyte was optimized using standard solution. A Capcell MP-C18 100×4.6 mm I.D., […] column (Phenomenex, Torrance, Calif., USA) was used during the analysis. The mobile phase was 5 mM ammonia acetate, 0.1% MeOH in water (A): 5 mM ammonia acetate, 0.1% MeOH in acetonitrile (B) (70:30, v/v). The flow rate was 0.6 mL/min. Column was maintained at ambient temperature. 20 μL of the samples were injected.
The compounds disclosed herein are assessed in pharmacokinetic studies in mice, rats, dogs or monkeys. The compounds are administered as a water solution, 2% HPMC+1% TWEEN®80 in water solution, 5% DMSO+5% solutol in saline, 4% MC suspension or capsule. For the intravenous administration, the animals are generally given at 1 or 2 mg/kg dose. For the oral (p.o.) dosing, mice and rats are generally given 5 or 10 mg/kg dose, and dogs and monkeys are generally given 10 mg/kg dose. The blood samples (0.3 mL) are drawn at 0.25, 0.5, 1.0, 2.0, 3.0, 4.0, 6.0, 8.0, 12 and 24 h time points or 0.083, 0.25, 0.5, 1.0, 2.0, 4.0, 6.0, 8.0 and 24 h time points and centrifuged at 3,000 or 4000 rpm for 2 to 10 min. The plasma solutions are collected, and stored at −20° C. or −70° C. until analyzed by LC/MS/MS as described above.

JAK1 (h) = molecular target: T1, JAK1 (h) (Homo sapiens, UniProt P23458); assay: JAK1 kinase assay; format: biochemical
T1 construct: purchased Millipore UK Ltd (assays run there as a service)
T1 sequence (P23458 whole entry): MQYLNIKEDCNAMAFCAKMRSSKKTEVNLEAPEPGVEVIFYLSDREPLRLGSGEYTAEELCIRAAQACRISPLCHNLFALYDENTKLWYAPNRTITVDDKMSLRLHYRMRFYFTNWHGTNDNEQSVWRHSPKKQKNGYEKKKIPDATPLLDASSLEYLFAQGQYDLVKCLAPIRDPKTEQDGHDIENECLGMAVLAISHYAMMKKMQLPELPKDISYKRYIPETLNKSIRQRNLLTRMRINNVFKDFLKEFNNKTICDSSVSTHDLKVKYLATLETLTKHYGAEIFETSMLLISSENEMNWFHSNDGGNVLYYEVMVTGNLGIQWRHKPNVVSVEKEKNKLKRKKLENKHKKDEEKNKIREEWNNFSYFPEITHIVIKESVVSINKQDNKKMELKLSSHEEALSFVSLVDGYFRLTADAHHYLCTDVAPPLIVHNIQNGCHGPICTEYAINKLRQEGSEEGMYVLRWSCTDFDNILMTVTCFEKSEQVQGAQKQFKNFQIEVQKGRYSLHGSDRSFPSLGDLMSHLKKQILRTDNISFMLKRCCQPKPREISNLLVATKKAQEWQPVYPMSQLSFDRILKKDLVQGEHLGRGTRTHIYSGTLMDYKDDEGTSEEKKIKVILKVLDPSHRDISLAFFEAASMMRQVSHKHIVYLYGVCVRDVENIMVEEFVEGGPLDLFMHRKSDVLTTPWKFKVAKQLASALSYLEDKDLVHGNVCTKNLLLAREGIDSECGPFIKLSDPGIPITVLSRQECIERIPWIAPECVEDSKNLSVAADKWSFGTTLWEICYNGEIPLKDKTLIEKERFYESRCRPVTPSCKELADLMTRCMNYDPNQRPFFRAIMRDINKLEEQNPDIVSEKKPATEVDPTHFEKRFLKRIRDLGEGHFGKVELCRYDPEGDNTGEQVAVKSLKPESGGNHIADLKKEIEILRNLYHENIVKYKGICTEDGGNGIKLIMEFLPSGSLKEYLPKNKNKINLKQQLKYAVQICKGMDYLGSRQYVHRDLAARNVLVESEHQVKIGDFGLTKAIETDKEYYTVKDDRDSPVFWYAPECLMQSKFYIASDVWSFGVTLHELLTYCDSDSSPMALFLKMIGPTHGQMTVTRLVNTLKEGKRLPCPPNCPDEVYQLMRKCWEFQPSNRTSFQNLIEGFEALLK
Description: Kinase assays can be performed by measurement of incorporation of γ-^33P ATP into immobilized myelin basic protein (MBP). High binding white 384 well plates (Greiner) are coated with MBP (Sigma #M-1891) by incubation of 60 μL/well of 20 μg/mL MBP in Tris-buffered saline (TBS; 50 mM Tris pH 8.0, 138 mM NaCl, 2.7 mM KCl) for 24 h at 4° C. Plates are washed 3× with 100 μL TBS. Kinase reactions are carried out in a total volume of 34 μL in kinase buffer (5 mM Hepes pH 7.6, 15 mM NaCl, 0.01% bovine gamma globulin (Sigma #I-5506), 10 mM MgCl2, 1 mM DTT, 0.02% TritonX-100). Compound dilutions are performed in DMSO and added to assay wells to a final DMSO concentration of 1%. Each data point is measured in duplicate, and at least two duplicate assays are performed for each individual compound determination. Enzyme is added to final concentrations of 10 nM or 20 nM, for example. A mixture of unlabeled ATP and γ-^33P ATP is added to start the reaction (2×10^6 cpm of γ-^33P ATP per well (3000 Ci/mmole) and 10 μM unlabeled ATP, typically. The reactions are carried out for 1 h at room temperature with shaking Plates are washed 7× with TBS, followed by the addition of 50 μL/well scintillation fluid (Wallac). Plates are read using a Wallac Trilux counter. This is only one format of such assays; various other formats are possible, as known to one skilled in the art.
The above assay procedure can be used to determine the IC50 for inhibition and/or the inhibition constant, Ki. The IC50 is defined as the concentration of compound required to reduce the enzyme activity by 50% under the condition of the assay. The IC50 value is estimated by preparing a 10 point curve using a ½ log dilution series (for example, a typical curve may be prepared using the following compound concentrations: 3 μM, 1 μM, 0.3 μM, 0.1 μM, 0.03 μM, 0.01 μM, 0.003 μM, 0.001 μM, 0.0003 μM and 0 μM).
JAK1 (h) is incubated with 20 mM Tris/HCl pH 7.5, 0.2 mM EDTA, 500 μM […], 10 mM MgAcetate and [γ-^33P-ATP] (specific activity approx. 500 cpm/pmol, concentration as required).
The kinase assays described herein were performed at Millipore UK Ltd, Dundee Technology Park, Dundee DD2 1SW, UK.

`Cc1c2ccc(Nc3ncc(Cl)c(NC4CC5CN(C(=O)CC#N)CC5C4)n3)cc2nn1C` (stereo not shown) [Ex. 4, 3-(5-((5-chloro-2-((2,3-dimethyl-2H-indazol-6-yl)amino)pyrimidin-4-yl)amino)hexahydrocyclopenta[c]pyrrol-2(1H)-yl)-3-oxopropanenitrile] gave a Cl/F [1] of 36.2 mL/min/kg, an AUC(0-t) [1] of 458 ng·h/mL and a half-life [1] of 1.36 h. The Vd [1] was 1.44 L/kg and the IC50 (JAK1 (h)) was 1 nM.

Work on `CC(=O)N1CCC2(CCC(Nc3nc(Nc4ccc5c(C)n(C)nc5c4)ncc3Cl)CC2)CC1` [Ex. 7, 1-(9-((5-chloro-2-((2,3-dimethyl-2H-indazol-6-yl)amino)pyrimidin-4-yl)amino)-3-azaspiro[5.5]undecan-3-yl)ethanone] yielded a Cl/F [1] of 24.5 mL/min/kg, an AUC(0-t) [1] of 688 ng·h/mL and a half-life [1] of 0.85 h. It also gave a Vd [1] of 1.68 L/kg and an IC50 (JAK1 (h)) of 0.9 nM.
